# Assay results taken from patent US6657106B2, “Removal of metals from contaminated substrates by plants” (ISIS Innovation Limited, priority 1995, dated 2003).
# “Also recorded” adds a separate entry of the source.
# Legend:
# A. lesbiacum = test: Effect of histidine in the root medium on xylem-sap exudation and nickel flux of excised roots; format: in vivo, Alyssum lesbiacum; conditions: 0.3 mM NiSO4 with or without 0.3 mM histidine in root medium, 12 h
# From the text: FIG. 4. Effect of exogenously applied histidine on nickel tolerance and xylem nickel translocation. a, Effect of foliar spraying with histidine (compared with glutamine) on nickel tolerance of A. montanum, assayed as the effect on whole-plant dry biomass production and root elongation. […]. Values of biomass production and root elongation are for nickel-treated plants expressed as percentages of the respective controls grown in the absence of nickel. […]. Roots of 4-week-old plants were excised and exposed to a root medium of modified Hoagland solution supplemented with either 0.3 mM MgSO4 (controls) or 0.3 mM NiSO4, with or without 0.3 mM added histidine.
# A. montanum [1] = test: Effect of foliar spraying with histidine on nickel tolerance; format: in vivo, Alyssum montanum; conditions: 20 mM histidine daily foliar spray with 0.01% Tween 20; 0.03 mM NiSO4 in root medium, 23 d; compared with 20 mM glutamine
# Procedure: 6. […]. Thus, chelation of nickel by histidine is important both in the detoxification of the metal ion within the plant and in facilitating the transport of the metal from root to shoot, a characteristic of metal-hyperaccumulator plants generally (Baker, A. J. M. and Brooks, R. R. (1989) loc. cit.).
# METHODS. Plants were germinated for 7 d on floating nets in 1 mM Ca(NO3)2 solution, subsequently transferred to 1.2-1 culture vessels (10 plants per vessel), and supplied with modified 0.1-strength Hoagland solution containing 0.1 mM KH2PO4, 0.5 mM KNO3, 0.4 mM Ca(NO3)2, 0.2 mM MgSO4, 0.01 mM FeNaEDTA, 0.01 mM H3BO3, 2 μM MnSO4, 0.2 μM ZnSO4, 0.2 μM CuSO4, 0.1 μM Na2MoO4 and 0.02 mM NaCl, supplemented with 0, 0.01, 0.03, 0.1, 0.3, 1, or 3 mM NiSO4. Plants were grown in a glasshouse at night temperatures between 14° C. and 18° C. and day temperatures between 22° C. and 34° C. with supplementary lighting provided by sodium-vapour lamps to give a 16-h photoperiod. Culture solutions were continuously aerated and exchanged every 7 d; solution pH remained in the range 5.6 to 6.0. Plants were harvested after 18 d, rinsed with distilled water, dried at 80° C. for 48 h and weighed. […].
# FIG. 4. […] Values of biomass production and root elongation are for nickel-treated plants expressed as percentages of the respective controls grown in the absence of nickel. […]
# A. montanum [2] = conditions: histidine supplied to the xylem of excised shoots; cited from earlier work
# A. montanum [3] = conditions: histidine supplied to the root medium of excised roots; earlier symposium report; cited from earlier work
# A. montanum [4] = test: Effect of histidine in the root medium on xylem-sap exudation and nickel flux of excised roots; format: in vivo, Alyssum montanum; conditions: 0.3 mM NiSO4 with or without 0.3 mM histidine in root medium, exudate collected over 12 h
# From the text: 6. […] That is, the application of relatively high concentrations of histidine exogenously is able to increase markedly both the nickel tolerance of an otherwise non-tolerant species of Alyssum (A. montanum) and to cause these plants to translocate nickel out of the root system at much higher rates. Thus, chelation of nickel by histidine is important both in the detoxification of the metal ion within the plant and in facilitating the transport of the metal from root to shoot, a characteristic of metal-hyperaccumulator plants generally (Baker, A. J. M. and Brooks, R. R. (1989) loc. cit.).
# FIG. 4. Effect of exogenously applied histidine on nickel tolerance and xylem nickel translocation. a, Effect of foliar spraying with histidine (compared with glutamine) on nickel tolerance of A. montanum, assayed as the effect on whole-plant dry biomass production and root elongation. After germination for 7 d, plants were grown in modified Hoagland solution (FIG. 1) containing either 0 or 0.03 mM NiSO4 for 23 d and were sprayed daily with a solution of either 20 mM glutamine (Ni) or 20 mM histidine (His+Ni), both containing 0.01% (v/v) of the non-ionic detergent Tween 20. Values of biomass production and root elongation are for nickel-treated plants expressed as percentages of the respective controls grown in the absence of nickel. Each bar represents the mean of 9 plants+1 SE. […]
compound,measurement,setting,value
N[C@@H](Cc1c[nH]cn1)C(=O)O [histidine],nickel flux,A. lesbiacum,no significant differences
same,xylem exudation rate,A. lesbiacum,no significant differences
same,root elongation (inhibitory effect of nickel),A. montanum [1],halving of the inhibitory effect; also recorded: significantly greater
same,whole-plant dry biomass production,A. montanum [1],more than twofold increase; also recorded: significantly greater
same,toxicity of nickel,A. montanum [2],apparently reduced the toxicity of nickel
same,"toxicity of nickel (exudation of sap, flux of nickel through the root system)",A. montanum [3],apparently reduced the toxicity of nickel
same,flux of nickel through the xylem,A. montanum [4],greatly increased; also recorded: significantly greater
same,rate of xylem-sap exudation,A. montanum [4],moderated the adverse effect of nickel; also recorded: significantly greater
